# Results reported in paper PMC3293837, “Biophysical Property and Broad Anti-HIV Activity of Albuvirtide, a 3-Maleimimidopropionic Acid-Modified Peptide Fusion Inhibitor” (PLoS ONE, 2012).
# Like-named read-outs stand apart in the source and are kept apart here. Side chains are listed from the residue outwards. Peptide text beside a SMILES is read from it. * marks the point of attachment. Propanoyl(3-maleimido) = O=C1C=CC(=O)N1CCC(=O)*; AEEA = NCCOCCOCC(=O)O
# What was measured:
# [1] = rats, intravenous, ref [25], cited from earlier work
# [2] = monkeys, intravenous, ref [25], cited from earlier work
# [3] = test system: HIV-1NL4-3 I37T/N43K pseudovirus; assay type: cell-based
# Protocol: (§1) The mutations were created using double-stranded DNA templates and selection of mutants with DpnI. For each mutation, the two primers contained the desired mutation and occupied the same starting and ending positions on opposite strands of the plasmid DNA. DNA synthesis was carried out by PCR in a 50-µL reaction volume using 1 µL of denatured plasmid template (1 ng/µL), 50 pmol of upper and lower primers and 5 U of high-fidelity thermostable polymerase PrimeStar (Takara, Dalian, China). PCR amplification was carried out for one cycle of denaturation at 98°C for 5 min, then 18 cycles of 98°C for 15 s and 68°C for 15 min, followed a final extension at 72°C for 10 min. The amplicons were treated with the restriction enzyme DpnI for 1 h at 37°C. DpnI-resistant molecules, which were rich in the desired mutants, were recovered by transforming Escherichia coli strain-DH5α to antibiotic resistance. The successful mutations were confirmed by sequencing.
# (§2) HIV-1 pseudoviruses were generated as described previously [32], [55]–[56]. Briefly, 293T cells (5×10^6 cells in 15 ml of growth medium in a T-75 culture flask) were cotransfected with 10 µg of an Env-expressing plasmid and 20 µg of a backbone plasmid pSG3deltaEnv that encodes Env-defective, luciferase-expressing HIV-1 genome using Lipofectamine 2000 reagent (Invitrogen). Pseudovirus-containing culture supernatants were harvested 48 hours after transfection and filtered by 0.45-mm pore size, and stored at −80°C in 1-ml aliquots until use. The 50% tissue culture infectious dose (TCID50) of a single thawed aliquot of each pseudovirus batch was determined in TZM-bl cells. […] Briefly, the peptides were prepared with ten series dilutions in a 3-fold stepwise manner and mixed with 100 TCID50 viruses and incubated 1 hour at room temperature. The mixture was added to TZM-bl cells (10^4/well) and incubation at 37°C for 48 hours. Luciferase activity was measured using luciferase assay regents (Promega, Medison, WI) and a Luminescence Counter (Promega) according to the manufacture's instructions.
# [4] = test system: HIV-1NL4-3 D36S/V38M pseudovirus; assay type: cell-based
# Protocol: as §1, §2
# [5] = test system: HIV-1NL4-3 D36G pseudovirus; assay type: cell-based
# Protocol: as §2
# [6] = test system: HIV-1NL4-3 V38A/N42T pseudovirus; assay type: cell-based
# Protocol: as §2
# [7] = test system: HIV-1NL4-3 N43K pseudovirus; assay type: cell-based
# Protocol: as §1, §2
# [8] = test system: HIV-1NL4-3 Env-pseudotyped virus; assay type: cell-based
# Protocol: as §2
# [9] = test system: HIV-1NL4-3 I37T pseudovirus; assay type: cell-based
# Protocol: as §2
# [10] = test system: HIV-1NL4-3 V38A pseudovirus; assay type: cell-based
# Protocol: as §2
# [11] = test system: HIV-1NL4-3 V38M pseudovirus; assay type: cell-based
# Protocol: as §2
# [12] = test system: HIV-1NL4-3 Q40H pseudovirus; assay type: cell-based
# Protocol: as §1, §2
# [13] = after conjugation with serum albumin
# [14] = value from which half-life was extended by albumin conjugation
structure (smiles),measurement,setting,value
CC[C@H](C)[C@H](NC(=O)[C@H](CC(C)C)NC(=O)[C@H](CCC(=O)O)NC(=O)[C@H](Cc1c[nH]cn1)NC(=O)[C@@H](NC(=O)[C@H](CC(C)C)NC(=O)[C@H](CCCCNC(=O)COCCOCCNC(=O)CCN1C(=O)C=CC1=O)NC(=O)[C@@H](NC(=O)[C@H](Cc1ccc(O)cc1)NC(=O)[C@H](CC(N)=O)NC(=O)[C@H](CC(N)=O)NC(=O)[C@@H](NC(=O)[C@H](CCC(=O)O)NC(=O)[C@H](CCCNC(=N)N)NC(=O)[C@H](CC(=O)O)NC(=O)[C@H](Cc1c[nH]c2ccccc12)NC(=O)[C@H](CCC(=O)O)NC(=O)[C@H](CCC(=O)O)NC(=O)[C@H](Cc1c[nH]c2ccccc12)NC(C)=O)[C@@H](C)CC)[C@@H](C)O)[C@@H](C)CC)C(=O)N[C@@H](CCC(=O)O)C(=O)N[C@@H](CCC(=O)O)C(=O)N[C@@H](CO)C(=O)N[C@@H](CCC(N)=O)C(=O)N[C@@H](CC(N)=O)C(=O)N[C@@H](CCC(N)=O)C(=O)N[C@@H](CCC(N)=O)C(=O)N[C@@H](CCC(=O)O)C(=O)N[C@@H](CCCCN)C(=O)N[C@@H](CC(N)=O)C(=O)N[C@@H](CCC(=O)O)C(=O)N[C@@H](CCC(N)=O)C(=O)N[C@@H](CCC(=O)O)C(=O)N[C@@H](CC(C)C)C(=O)N[C@@H](CC(C)C)C(N)=O [ABT] (Ac-WEEWDREINNYTK([AEEA-Propanoyl(3-maleimido)])LIHELIEESQNQQEKNEQELL-NH2),"in vivo half-life (extended, 'to')",[1]; [13],25.8 h
same,"in vivo half-life (before extension, 'from')",[1]; [14],1.67 h
same,"in vivo half-life (extended, 'to')",[2]; [13],102.4 h
same,"in vivo half-life (before extension, 'from')",[2]; [14],10.89 h
Cc1cn([C@H]2C[C@H](N=[N+]=[N-])[C@@H](CO)O2)c(=O)[nH]c1=O [AZT],IC50,"[3]; HIV-1NL4-3 I37T/N43K, TZM-bl, 48 h, mean ± SD of three independent experiments",0.139 ± 0.0149 µM
same,Fold change (in parentheses),"[3]; I37T/N43K, reference D36G",2.3
same,Fold change,"[3]; I37T/N43K, reference wild-type",1.3
same,Fold change (in parentheses),"[4]; D36S/V38M, reference D36G",0.7
same,Fold change,"[4]; D36S/V38M, reference wild-type",0.4
same,IC50,"[4]; HIV-1NL4-3 D36S/V38M, TZM-bl, 48 h, mean ± SD of three independent experiments",0.0403 ± 0.0086 µM
same,Fold change (in parentheses),"[5]; D36G, reference D36G",1.0
same,Fold change,"[5]; D36G, reference wild-type",0.6
same,IC50,"[5]; HIV-1NL4-3 D36G, TZM-bl, 48 h, mean ± SD of three independent experiments",0.0594 ± 0.0059 µM
same,IC50,"[6]; HIV-1NL4-3 V38A/N42T, TZM-bl, 48 h, mean ± SD of three independent experiments",0.0381 ± 0.0037 µM
same,Fold change (in parentheses),"[6]; V38A/N42T, reference D36G",0.6
same,Fold change,"[6]; V38A/N42T, reference wild-type",0.4
same,IC50,"[7]; HIV-1NL4-3 N43K, TZM-bl, 48 h, mean ± SD of three independent experiments",0.153 ± 0.0074 µM
same,Fold change (in parentheses),"[7]; N43K, reference D36G",2.6
same,Fold change,"[7]; N43K, reference wild-type",1.4
same,IC50,"[8]; HIV-1NL4-3 WT pseudovirus, Table 3, TZM-bl, 48 h, mean ± SD of three independent experiments, read-out: IC50",0.107 ± 0.0232 µM
same,Fold change (in parentheses),"[8]; WT, reference D36G",1.8
same,Fold change,"[8]; WT, reference wild-type",1.0
same,IC50,"[9]; HIV-1NL4-3 I37T, TZM-bl, 48 h, mean ± SD of three independent experiments",0.0935 ± 0.0135 µM
same,Fold change (in parentheses),"[9]; I37T, reference D36G",1.6
same,Fold change,"[9]; I37T, reference wild-type",0.9
same,IC50,"[10]; HIV-1NL4-3 V38A, TZM-bl, 48 h, mean ± SD of three independent experiments",0.0423 ± 0.009 µM
same,Fold change (in parentheses),"[10]; V38A, reference D36G",0.7
same,Fold change,"[10]; V38A, reference wild-type",0.4
same,IC50,"[11]; HIV-1NL4-3 V38M, TZM-bl, 48 h, mean ± SD of three independent experiments",0.0478 ± 0.0037 µM
same,Fold change (in parentheses),"[11]; V38M, reference D36G",0.8
same,Fold change,"[11]; V38M, reference wild-type",0.5
same,IC50,"[12]; HIV-1NL4-3 Q40H, TZM-bl, 48 h, mean ± SD of three independent experiments",0.0332 ± 0.0072 µM
same,Fold change (in parentheses),"[12]; Q40H, reference D36G",0.6
same,Fold change,"[12]; Q40H, reference wild-type",0.3
